Molecules are shown by their SMILES.

For one assay, the system named is Echinochloa crus-galli (L.) Beauv. var. crus-galli. The experiment in a line: Herbicidal effect by upland foliage treatment. Type of assay: in vivo. Also noted: scale not given here. As to conditions: active ingredient 1000 g/ha, examined at 14th day from treatment. How it is done:
(§1) A sand was filled in a plastic pot of 80 cm^2. Seeds of Echinochloa crus-galli (L.) Beauv. var. crus-galli and Setaria viridis (L.) Beauv. were sowed. Breeding was made in a greenhouse for 2 weeks. Wettable powders produced in accordance with the Formulation 1 were diluted with water and sprayed on the whole foliage of plants from above the plants using a small sprayer in an amount of 1,000 liters per 1 hectare so that the amount of each active ingredient became 1,000 g per 1 hectare. Then, breeding was made in the greenhouse, and the herbicidal effect of each wettable powder was examined at the 14th day from the treatment in accordance with the standard shown in Table 21.
On to `C=CCn1nc(Cl)c(CS(=O)(=O)C2=NOC(C)(C)C2)c1C(F)(F)F` [3-0105], for which the “herbicidal effect (index per standard of Table 21), Echinochloa curs-galli (L.) Beauv. Var. crus-galli” value is 5.
`CC(C)n1nc(Cl)c(CS(=O)(=O)C2=NOC(C)(C)C2)c1C(F)(F)F` [3-0076]: the “herbicidal effect (index per standard of Table 21), Echinochloa curs-galli (L.) Beauv. Var. crus-galli” value is 5.
Take `C#CCn1nc(Cl)c(CS(=O)(=O)C2=NOC(C)(C)C2)c1C(F)(F)F` [3-0107]: the “herbicidal effect (index per standard of Table 21), Echinochloa curs-galli (L.) Beauv. Var. crus-galli” value turned out to be 5.

Another assay has as its system Setaria viridis (L.) Beauv. The experiment in a line: Herbicidal effect by upland foliage treatment. As to conditions: active ingredient 1000 g/ha, examined at 14th day from treatment. Type of assay: in vivo. Also noted: scale not given here. The protocol:
as §1
Consider `C=CCn1nc(Cl)c(CS(=O)(=O)C2=NOC(C)(C)C2)c1C(F)(F)F` [3-0105], for which the “herbicidal effect (index per standard of Table 21), Setaria viridis (L.) Beauv.” value amounted to 4.
For the compound `CC(C)n1nc(Cl)c(CS(=O)(=O)C2=NOC(C)(C)C2)c1C(F)(F)F` [3-0076], the “herbicidal effect (index per standard of Table 21), Setaria viridis (L.) Beauv.” value is on record as 4.
Same read-out and setting: next, `C#CCn1nc(Cl)c(CS(=O)(=O)C2=NOC(C)(C)C2)c1C(F)(F)F` [3-0107]: 5.

The next assay has as its system Monochoria vaginalis (Murm. f.) Presl var. plantaginea (Roxb.) Solms-Laub. The assay can be described thus: Herbicidal effect by paddy field soil treatment. Type of assay: in vivo. More on the design: scale not given here. The following applies: wettable powder, active ingredient 1000 g/ha, examined at the 21st day from the treatment. The procedure, abridged: (§2)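 Seeds sown in puddled paddy soil under 3 cm of water; the next day wettable powders diluted in water were dropped onto the water surface at 1,000 g active ingredient/ha. Plants grown in a greenhouse, with herbicidal effect scored on day 21 against a rating standard.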
For `Cn1nc(-c2ccccc2)c(CS(=O)(=O)C2=NOC(C)(C)C2)c1Cl` [3-0072], the “Herbicidal effect index, Monochoria vaginalis (Burm. F.) Presl var. plantaginea (Roxb.) Solms-Laub.” value (shortened to “Herbicidal effect index … (Roxb.) Solms-Laub.”) was 5.
For the compound `Cn1nc(C(F)(F)F)c(CS(=O)(=O)C2=NOC(C)(C)C2)c1OC(F)F` [3-0054], the “Herbicidal effect index … (Roxb.) Solms-Laub.” value worked out at 5.
In the case of `CCOCCn1nc(Cl)c(CS(=O)(=O)C2=NOC(C)(C)C2)c1C(F)(F)F` [3-0127], the “Herbicidal effect index … (Roxb.) Solms-Laub.” value amounted to 5.
The same measure, in the same setting: next, `Cn1ncc2cccc(CS(=O)(=O)C3=NOC(C)(C)C3)c21` [10-0016]: 5; `Cn1nc(C(F)(F)F)c(CS(=O)(=O)C2=NOC(C)(C)C2)c1OCc1ccccc1` [3-0059]: 5.
Consider `Cn1nc(C(F)(F)F)c(CS(=O)(=O)C2=NOC(C)(C)C2)c1S(=O)(=O)c1ccccc1` [3-0070], for which the “Herbicidal effect index … (Roxb.) Solms-Laub.” value is reported as 5.
On to `CCC1(C)CC(S(=O)(=O)Cc2c(C(F)(F)F)nn(C)c2Cl)=NO1` (stereo not shown) [3-0180], for which the “Herbicidal effect index … (Roxb.) Solms-Laub.” value is given as 5.

A further assay concerns Echinochloa oryzicola Vasing. The assay can be described thus: Herbicidal effect by paddy field soil treatment. Type of assay: in vivo. Also noted: scale not given here. As to conditions: wettable powder, active ingredient 1000 g/ha, examined at the 21st day from the treatment. The essentials:
as §2
Take `Cn1nc(-c2ccccc2)c(CS(=O)(=O)C2=NOC(C)(C)C2)c1Cl` [3-0072]: the “Herbicidal effect index, Echinochloa oryzicola Vasing” value was found to be 5.
For the compound `Cn1nc(C(F)(F)F)c(CS(=O)(=O)C2=NOC(C)(C)C2)c1OC(F)F` [3-0054], the “Herbicidal effect index, Echinochloa oryzicola Vasing” value is on record as 5.
Turning to `CCOCCn1nc(Cl)c(CS(=O)(=O)C2=NOC(C)(C)C2)c1C(F)(F)F` [3-0127], the “Herbicidal effect index, Echinochloa oryzicola Vasing” value was found to be 5.
As for `Cn1ncc2cccc(CS(=O)(=O)C3=NOC(C)(C)C3)c21` [10-0016], the “Herbicidal effect index, Echinochloa oryzicola Vasing” value was 5.
As to `Cn1nc(C(F)(F)F)c(CS(=O)(=O)C2=NOC(C)(C)C2)c1OCc1ccccc1` [3-0059], the “Herbicidal effect index, Echinochloa oryzicola Vasing” value was found to be 5.
Same read-out and setting: next, `Cn1nc(C(F)(F)F)c(CS(=O)(=O)C2=NOC(C)(C)C2)c1S(=O)(=O)c1ccccc1` [3-0070]: 5; `CCC1(C)CC(S(=O)(=O)Cc2c(C(F)(F)F)nn(C)c2Cl)=NO1` (stereo not shown) [3-0180]: 5.

A further assay relates to Setaria viridis (L.) Beauv. The assay can be described thus: Herbicidal effect by upland field soil treatment. Type of assay: in vivo. More on the design: scale not given here. The following applies: active ingredient 1000 g/ha, examined at 21st day from treatment. From the text:
(§3) An upland field soil was filled in a plastic pot of 80 cm^2. Seeds of Echinochloa crus-galli (L.) Beauv. var. crusgalli and Setaria viridis (L.) Beauv. were sowed, followed by covering with the same soil. […] Then, breeding was made in a greenhouse, and the herbicidal effect of each wettable powder was examined at the 21st day from the treatment in accordance with the standard shown in Table 21.
On to `Cn1nc(-c2ccccc2)c(CS(=O)(=O)C2=NOC(C)(C)C2)c1Cl` [3-0072], for which the “herbicidal effect (index per standard of Table 21), Setaria viridis (L.) Beauv.” value stood at 5.
On the same count and under the same terms, next, `Cn1nc(C(F)(F)F)c(CS(=O)(=O)C2=NOC(C)(C)C2)c1OC(F)F` [3-0054]: 5; `CCOCCn1nc(Cl)c(CS(=O)(=O)C2=NOC(C)(C)C2)c1C(F)(F)F` [3-0127]: 5; `Cn1ncc2cccc(CS(=O)(=O)C3=NOC(C)(C)C3)c21` [10-0016]: 4.
As for `Cn1nc(C(F)(F)F)c(CS(=O)(=O)C2=NOC(C)(C)C2)c1OCc1ccccc1` [3-0059], the “herbicidal effect (index per standard of Table 21), Setaria viridis (L.) Beauv.” value is given as 5.
On to `Cn1nc(C(F)(F)F)c(CS(=O)(=O)C2=NOC(C)(C)C2)c1S(=O)(=O)c1ccccc1` [3-0070], for which the “herbicidal effect (index per standard of Table 21), Setaria viridis (L.) Beauv.” value worked out at 4.
As to `CCC1(C)CC(S(=O)(=O)Cc2c(C(F)(F)F)nn(C)c2Cl)=NO1` (stereo not shown) [3-0180], the “herbicidal effect (index per standard of Table 21), Setaria viridis (L.) Beauv.” value is recorded as 5.

In a further assay the test system is Echinochloa crus-galli (L.) Beauv. var. crusgalli. The assay can be described thus: Herbicidal effect by upland field soil treatment. As to conditions: active ingredient 1000 g/ha, examined at 21st day from treatment. Type of assay: in vivo. Also noted: scale not given here.
Source text: as §3
With `Cn1nc(-c2ccccc2)c(CS(=O)(=O)C2=NOC(C)(C)C2)c1Cl` [3-0072], the “herbicidal effect (index per standard of Table 21), Echinochloa curs-galli (L.) Beauv. Var. crus-galli” value amounted to 5.
Turning to `Cn1nc(C(F)(F)F)c(CS(=O)(=O)C2=NOC(C)(C)C2)c1OC(F)F` [3-0054], the “herbicidal effect (index per standard of Table 21), Echinochloa curs-galli (L.) Beauv. Var. crus-galli” value worked out at 5.
Still for that read-out and setting: next, `CCOCCn1nc(Cl)c(CS(=O)(=O)C2=NOC(C)(C)C2)c1C(F)(F)F` [3-0127]: 5; `Cn1ncc2cccc(CS(=O)(=O)C3=NOC(C)(C)C3)c21` [10-0016]: 5.
`Cn1nc(C(F)(F)F)c(CS(=O)(=O)C2=NOC(C)(C)C2)c1OCc1ccccc1` [3-0059]: the “herbicidal effect (index per standard of Table 21), Echinochloa curs-galli (L.) Beauv. Var. crus-galli” value was 5.
With `Cn1nc(C(F)(F)F)c(CS(=O)(=O)C2=NOC(C)(C)C2)c1S(=O)(=O)c1ccccc1` [3-0070], the “herbicidal effect (index per standard of Table 21), Echinochloa curs-galli (L.) Beauv. Var. crus-galli” value came out at 4.
Regarding `CCC1(C)CC(S(=O)(=O)Cc2c(C(F)(F)F)nn(C)c2Cl)=NO1` (stereo not shown) [3-0180], the “herbicidal effect (index per standard of Table 21), Echinochloa curs-galli (L.) Beauv. Var. crus-galli” value turned out to be 5.

(Values after patent US7238689B2, “Isoxazoline derivative and herbicide comprising the same as active ingredient” (Ihara Chemical Industry Co., Ltd., priority 2001, dated 2007).)
